Test results taken from PMC9220351, “Evaluation of a Conformationally Constrained Indole Carboxamide as a Potential Efflux Pump Inhibitor in Pseudomonas aeruginosa” (Antibiotics, 2022).

Key:
[1] = system: P. aeruginosa K3698 (∆oprM); test: MIC / potentiation assay, strain K3698; type: cell-based, Pseudomonas aeruginosa; conditions: Pseudomonas aeruginosa, read-out: MICs K3698 (∆oprM)
From the text: P. aeruginosa ATCC 27853 was obtained from the American Type Culture Collection (ATCC; Manassas, VA, USA). P. aeruginosa multidrug-resistant isolates were obtained from the CDC and FDA Antibiotic Resistance Isolate Bank (Atlanta, GA, USA). P. aeruginosa DA7232 (gyrA-T83I, parC-S80L) was a kind gift from Prof. Dan I. Andersson, Uppsala University, Uppsala, Sweden, and has been characterized elsewhere. P. aeruginosa strains K767 (WT), K1455 (mexAB-oprM overexpressed), K2415 (mexXY-oprM overexpressed), and K3698 (oprM∆) were obtained from Prof. Keith Poole, Queen’s University, Kingston, Ontario, Canada and have been characterized elsewhere. Bacterial cells were grown in cation-adjusted Mueller Hinton (CAMH) media, brain heart infusion broth (BHI), or tryptic soy agar (TSA) plates were all obtained from Becton, Dickinson, and Company (BD; Franklin Lakes, NJ, USA). […] Azithromycin was purchased from Tokyo Chemical Industry (Portland, OR, USA). […] Ethidium bromide (EtBr) and glucose were purchased from VWR (Radnor, PA, USA). MC-04,124 and TXA01182 were synthesized at TAXIS Pharmaceuticals. Carbonyl cyanide 3-chlorophenylhydrazone (CCCP) was purchased from Enzo Life Sciences (Farmingdale, NY, USA). DiOC2 (3) and propidium iodide were obtained from Thermo Fisher Scientific (Waltham, MA, USA).
MIC assays were performed as described previously.

Solubility at pH 7.4 = type: physicochemical; conditions: pH 7.4, aqueous buffer
P. aeruginosa ATCC 27853 = test: Time-kill studies; type: cell-based, Pseudomonas aeruginosa; conditions: highest concentration tested
Experimental: Time-kill studies were carried out as described previously with the following changes.

[2] = system: P. aeruginosa ATCC 27853 efflux of EtBr; test: Ethidium bromide (EtBr) efflux inhibition assay; type: cell-based, Pseudomonas aeruginosa; conditions: fluorescence, after glucose activation
Experimental: The ability of TXA09155 to inhibit efflux in P. aeruginosa was studied using two quantitative assays to establish efflux inhibition as the MOA. In the first assay, the efflux of ethidium bromide (EtBr) by P. aeruginosa cells is studied in the presence of different concentrations of TXA09155. Wild-type P. aeruginosa ATCC 27853 cells were incubated with EtBr to allow for the intracellular accumulation and were treated with CCCP to inhibit active efflux. […] Following activation by the addition of glucose, the efflux of EtBr can be followed in real time as a decrease in fluorescence based on the concentration of TXA09155.
Efflux of EtBr from P. aeruginosa in the presence of TXA09155 was carried out as described previously.

[3] = system: P. aeruginosa ATCC 27853 inner membrane potential; test: DiOC2 (3) membrane polarization assay; type: cell-based, Pseudomonas aeruginosa; conditions: 20 to 0.01 μM
Experimental: RND efflux pumps couple the influx of protons from the proton gradient across the inner membrane to the efflux of drugs and other molecules. […] The effect of TXA09155 on the proton gradient of P. aeruginosa was assessed with a fluorescence-based 3,3′-diethyloxacarbocyanine iodide [DiOC2 (3)] assay that was developed to measure membrane potential changes in Gram-negative bacteria. DiOC2 (3) is a positively charged fluorescent dye that accumulates within cells in a charge-dependent manner, shifting its fluorescence spectrum from green to red at high concentrations due to concentration-dependent dye stacking. […] Azithromycin and CCCP were used as […] controls, respectively.
P. aeruginosa membrane polarization assays were conducted as described previously using strain ATCC 27853. […] DiOC2 (3) fluorescence was recorded in a microplate reader using 450 nm excitation and 670 nm emission (for red fluorescence). Background correction for each concentration of each compound was obtained from reading the fluorescence of compounds in the resuspension buffer without cells. After background correction, fluorescence was normalized to that of the vehicle (DMSO) only. After a 30 min incubation at 37 °C, DiOC2 (3) fluorescence was recorded using a SpectraMax iD5 spectrophotometer (Molecular Devices, San Jose, CA, USA) following excitation at 450 nm. […]

[4] = Metabolic stability in rat liver microsomes; type: in vitro ADME
Experimental: The metabolic stability of TXA09155 was determined in human, mouse, and rat liver microsomes by Eurofins (St. Charles, MO, USA) using the substrate depletion method (in vitro half-life (t1/2) method). Quantification was performed by LC/MS/MS. In this assay, depletion of the parent compound is measured over time to determine the compound’s in vitro t1/2 and hepatic extraction ratios (ER). This is used to predict metabolic clearance. […] This assay utilizes electrophysiology measurements on the electric current passing through the hERG channel heterologously expressed in a stable CHO cell line. Channels are open by a hERG-specific voltage protocol, and the compound effects are directly characterized by their block of the hERG current. The assay is performed on an automated platform, Q-Patch.

CYP2C9 = CYP2C9 (Homo sapiens, UniProt P11712); test: CYP inhibition; type: in vitro ADME; conditions: read-out: CYP Inhibition IC50, CYP 2C9
P. aeruginosa DA7232 = test: Levofloxacin accumulation assay; type: cell-based, Pseudomonas aeruginosa; conditions: levofloxacin 64 μg/mL; compound 1/2, 1/4th, 1/8th MIC
Experimental: Similar assays have been described elsewhere with the same purpose.
The treated bacterial culture samples were incubated on ice for 15 min, centrifuged, washed with 1X PBS (pH 7.4), and then resuspended in 1 mL of glycine-HCl buffer (pH 3.0) overnight, followed by centrifugation. The fluorescence of 100 μL of supernatant was read at 490 nm following a 355 nm excitation in a SpectraMax iD5 spectrophotometer (Molecular Devices, San Jose, CA, USA).

CYP2D6 = CYP2D6 (Homo sapiens, UniProt P10635); test: CYP inhibition; type: in vitro ADME; conditions: read-out: CYP Inhibition IC50, CYP 2D6
[5] = CellTiterGlo cytotoxicity assay; type: cell-based; conditions: human, A549 cells

Chain of CYP2C9 (P11712 whole entry): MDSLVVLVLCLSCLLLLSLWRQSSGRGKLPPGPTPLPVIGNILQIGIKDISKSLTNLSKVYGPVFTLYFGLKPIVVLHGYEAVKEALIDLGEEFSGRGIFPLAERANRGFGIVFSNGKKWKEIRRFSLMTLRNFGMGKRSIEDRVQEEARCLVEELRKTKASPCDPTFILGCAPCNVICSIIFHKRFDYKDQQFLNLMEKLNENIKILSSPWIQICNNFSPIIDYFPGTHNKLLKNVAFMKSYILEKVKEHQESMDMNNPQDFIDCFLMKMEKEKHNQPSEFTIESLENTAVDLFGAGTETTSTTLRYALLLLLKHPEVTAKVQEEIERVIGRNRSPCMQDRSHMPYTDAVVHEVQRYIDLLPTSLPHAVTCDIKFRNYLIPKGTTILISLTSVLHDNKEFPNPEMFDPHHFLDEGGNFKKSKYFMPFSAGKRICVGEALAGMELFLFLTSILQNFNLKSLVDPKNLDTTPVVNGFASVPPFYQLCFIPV
Chain of CYP2D6 (P10635 whole entry): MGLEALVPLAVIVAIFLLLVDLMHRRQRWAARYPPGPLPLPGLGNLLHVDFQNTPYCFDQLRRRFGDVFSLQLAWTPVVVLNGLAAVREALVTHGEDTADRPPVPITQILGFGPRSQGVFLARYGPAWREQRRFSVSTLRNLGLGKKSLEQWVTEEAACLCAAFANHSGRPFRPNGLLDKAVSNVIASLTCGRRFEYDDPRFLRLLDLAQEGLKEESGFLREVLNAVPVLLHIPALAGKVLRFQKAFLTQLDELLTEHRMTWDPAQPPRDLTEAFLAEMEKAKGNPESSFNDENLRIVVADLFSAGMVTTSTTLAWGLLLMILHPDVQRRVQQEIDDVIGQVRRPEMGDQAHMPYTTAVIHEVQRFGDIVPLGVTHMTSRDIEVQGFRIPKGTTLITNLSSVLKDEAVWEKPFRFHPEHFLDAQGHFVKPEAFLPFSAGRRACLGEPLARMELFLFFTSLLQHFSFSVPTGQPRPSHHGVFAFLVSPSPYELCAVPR

For C[C@H]1COc2c(N3CCN(C)CC3)c(F)cc3c(=O)c(C(=O)O)cn1c23 [Levofloxacin], which MIC [1] is on record?
The MIC was 0.031 µg/mL.

What does the source list for Cl.NC[C@@H]1CN[C@H](CNC(=O)c2cc3ccc(-c4ccc(F)cc4)cc3[nH]2)C1 [TXA09155, N-(((2S,4R)-4-(aminomethyl)pyrrolidine-2-yl)methyl)-6-(4-fluorophenyl)-1H-indole-2-carboxamide hydrochloride salt]?
solubility (Solubility at pH 7.4): > 155 µM; effect on growth, compound alone (P. aeruginosa ATCC 27853): did not affect the growth; inhibition of EtBr efflux [2]: concentration-dependent inhibition; membrane depolarization [3]: did not lead to membrane depolarization; HLM and RLM Metabolic Stability (RLM) [4]: >60%; IC50 (CYP2C9): > 100 µM; accumulation of levofloxacin inside P. aeruginosa (P. aeruginosa DA7232): concentration-dependent manner; IC50 (CYP2D6): 67.2 µM; IC50 [5]: > 40 µM
